The values below come from US11045520B2, “Compositions and methods for topical delivery of pharmaceutical agents” (priority 2016, dated 2021).

One series relates to human skin. As to the kind of experiment: Franz cell diffusion apparatus assay, ETA-treated vs control skin (Example 3). The series is classed as in vitro ADME. The following applies: ETA-treated human skin compared to non-treated control, 24 hours. As for the experimental part: Permeation experiments with Franz diffusion cells were performed using human skin. The Franz diffusion cells were made of glass with a contact area of 1.35 cm^2, consisting of a donor compartment and a receptor compartment. The skin was mounted between the cell compartments and 2 O-ring shaped glasses were used to position the skin epidermis side-up and dermis side-down. The two cell compartments were held together with a clamp. […] It was kept at 37° C. on a heated plate. After 30 minutes of equilibration of the skin with the receptor solution, 200 μl of the drug solution was applied in the donor compartment with a pipet. The donor compartment was then covered with parafilm to prevent evaporation of the solvent. The receptor solution was continuously stirred using a spinning bar magnet at 200 rpm. Receptor solution samples, 0.2 ml aliquots, were withdrawn through the sampling port of the receptor compartment at various time intervals. The cells were refilled with a same amount of receptor solution to keep the volume of receptor solution constant during the experiment. The experiments were run for 24 hours. The fluorescent intensities collected from receptor compartments from normal and desquamated skin were compared over time using a spectrophotometer. […]

The subject of a further series is human skin explants. The settings on record: cited from earlier work.

In the case of `O=C1OC2(c3ccc(O)cc3Oc3cc(O)ccc32)c2ccccc21` [fluorescein], the “skin permeability, fluorescence in receptor compartment” value in the series with human skin is reported as “increase in skin permeability”.
Take `C=C[C@@]1(C)CC(=O)[C@]2(O)[C@@]3(C)[C@@H](O)CCC(C)(C)[C@@H]3[C@H](O)[C@H](OC(C)=O)[C@@]2(C)O1` [Forskolin]: the “penetration of intact human skin” value in the series with human skin explants is “cannot, however, penetrate intact human skin”.
